Measured values: the supplement of paper PMC10307832

How the values were obtained:
Assay in all cases: relative viability (nuclei count vs DMSO), 5 days (fraction); higher = more cells survive
[1] = compound: CC1=C(CC(=O)O)c2cc(F)ccc2/C1=C\c1ccc([S+](C)[O-])cc1 [Sulindac] + CC1(C)CCC(c2ccc(Cl)cc2)=C(CN2CCN(c3ccc(C(=O)NS(=O)(=O)c4ccc(N[C@H](CCN5CCOCC5)CSc5ccccc5)c(S(=O)(=O)C(F)(F)F)c4)cc3)CC2)C1 [Navitoclax] (partner 0.5 µM)
Method in brief: (§1)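 The day after seeding in 1536-well plates, lung cancer cell lines were treated by pin tool with a single drug, or with a fixed anchor-drug dose together with five library-drug doses (not always all listed) in √10 steps. After 5 days, a combined fix-and-stain solution (final 0.05% Triton X-100, 1% formaldehyde, 1 ug/ml Hoechst) was added. Nuclei counted on 4× images gave relative viability as treated counts over vehicle counts, reported as the median of duplicate plates.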

[2] = compound: CN[C@@H]1C[C@H]2O[C@@](C)([C@@H]1OC)n1c3ccccc3c3c4c(c5c6ccccc6n2c5c31)C(=O)NC4 [Staurosporine] + CCNC(=O)c1noc(-c2cc(C(C)C)c(O)cc2O)c1-c1ccc(CN2CCOCC2)cc1 [Luminespib] (partner 0.01 µM)
Method in brief: as §1

[3] = compound: CN[C@@H]1C[C@H]2O[C@@](C)([C@@H]1OC)n1c3ccccc3c3c4c(c5c6ccccc6n2c5c31)C(=O)NC4 [Staurosporine] + CS(=O)(=O)N1CCN(Cc2cc3nc(-c4cccc5[nH]ncc45)nc(N4CCOCC4)c3s2)CC1 [Pictilisib] (partner 1 µM)
Method in brief: as §1

Cell Line	relative viability ([1]; first compound 0.08 µM)	relative viability ([1]; first compound 0.253 µM)	relative viability ([1]; first compound 2.53 µM)	relative viability ([1]; first compound 8 µM)	relative viability ([2]; first compound 0.005 µM)	relative viability ([2]; first compound 0.01581 µM)	relative viability ([2]; first compound 0.05 µM)	relative viability ([2]; first compound 0.1581 µM)	relative viability ([2]; first compound 0.5 µM)	relative viability ([3]; first compound 0.005 µM)	relative viability ([3]; first compound 0.05 µM)	relative viability ([3]; first compound 0.1581 µM)	relative viability ([3]; first compound 0.5 µM)	relative viability ([1]; first compound 0.8 µM)	relative viability ([3]; first compound 0.01581 µM)
NCI-H460	1.88	1.44	1.07	1.3	0.0316	0.0208	0.0244	0.0122	0.0179	0.316	0.228	0.0535	0.0424		
NCI-H520	1.33	1.17	1.04	1.44	0.194	0.309	0.233	0.212	0.185	0.484	0.39	0.178	0.159	1.03	0.206
NCI-H596	0.901	0.953	1.02	1.13	1.19	0.719	0.509	0.237	0.3	0.407	0.198	0.129	0.105	0.812	0.222
NCI-H647	1.48	1.26	1.04	1.53	0.128	0.174	0.0674	0.0695	0.0608	0.292	0.148	0.118	0.0831	0.991	0.125
NCI-H727	0.32	0.385	0.416	0.433	0.291	0.373	0.252	0.223	0.183	0.486	0.2	0.223	0.12	0.381	0.293
NCI-H838	1.33	1.19	1.18	1.39	0.247	0.135	0.138	0.107	0.113	0.19	0.172	0.144	0.126	1.1	0.151
NCI-H1355	1.03	0.989	0.961	0.914	0.591	0.278	0.212	0.209	0.191	0.277	0.215	0.153	0.152	0.806	0.157
NCI-H1395	1.2	1.17	1.19	1.2	0.613	0.507	0.349	0.318	0.346	0.535	0.475	0.366	0.394	1.1	0.315
NCI-H1437	1.28	1.1	1.1	1.38	1.05		0.774	0.367	0.26	0.449	0.249	0.108	0.0658	1.05	0.25
NCI-H1650	1.23	1.12	1.04	1.38	0.168	0.18	0.183	0.16	0.169	0.284	0.138	0.15	0.107	1.16	0.141
NCI-H1651	1.29	1.3	1.22	1.38	0.793	0.614	0.459	0.173	0.116	0.438	0.239	0.097	0.089	0.544	0.334
NCI-H1666		0.963	0.853	1.19	0.758	0.582	0.604	0.38	0.279	0.374	0.322	0.176	0.149	0.793	0.267
NCI-H1734	0.785	1.03	0.987	1.12	0.112	0.0831	0.511	0.0656	0.0444	0.317	0.174	0.105	0.0965	0.594	0.175
NCI-H1755	1.17	1.09	1.08	1.13	0.276	0.214	0.155	0.195	0.155	0.135	0.155	0.138	0.154	0.821	0.139
NCI-H1792	0.796	0.682	0.681	0.691	0.459	0.287	0.18	0.188	0.199	0.25	0.0905	0.106			0.0859
NCI-H1793	0.341	0.396	0.458	0.473	0.252		0.188	0.131	0.13	0.534	0.277	0.191		0.364	0.248
NCI-H1915	0.873	0.808	0.742	0.832	0.824	0.247	0.207	0.105	0.0895	0.719	0.35		0.0773	0.78	
NCI-H1944	0.958	1	1.07	1.23	0.928	0.507	0.41	0.44	0.187	0.295	0.26	0.231	0.184	1	

Cell Line	relative viability ([1]; first compound 0.08 µM)	relative viability ([1]; first compound 0.253 µM)	relative viability ([1]; first compound 2.53 µM)	relative viability ([1]; first compound 8 µM)	relative viability ([2]; first compound 0.005 µM)	relative viability ([2]; first compound 0.01581 µM)	relative viability ([2]; first compound 0.05 µM)	relative viability ([2]; first compound 0.1581 µM)	relative viability ([2]; first compound 0.5 µM)	relative viability ([3]; first compound 0.005 µM)	relative viability ([3]; first compound 0.05 µM)	relative viability ([3]; first compound 0.1581 µM)	relative viability ([3]; first compound 0.5 µM)	relative viability ([1]; first compound 0.8 µM)	relative viability ([3]; first compound 0.01581 µM)
NCI-H1975	1.26	1.24	1.21	1.25	0.159	0.155	0.131	0.169	0.146	0.209	0.156	0.103	0.11		0.14
NCI-H1993	1.13	0.917	0.933	0.88	0.75	0.532	0.51	0.494	0.303	0.869	0.66	0.526	0.565	0.871	0.646
NCI-H2009	1.21	1.2	1.18	1.34	0.357	0.271	0.17	0.114	0.149	0.195	0.182	0.115	0.0836	1.29	0.146
NCI-H2023	1.37	0.987	0.977	1.24	0.343	0.228	0.109	0.088	0.045	0.134	0.11	0.0886	0.0609	0.987	0.106
NCI-H2085	1.18	1.21	1.18	1.14	0.39	0.315	0.2	0.227	0.171	0.369	0.282	0.351	0.226	0.979	0.261
NCI-H2087	0.958	0.939	0.973	1.1	0.151	0.139	0.112	0.112	0.0949	0.833	0.313	0.165	0.138	0.88	0.435
NCI-H2126	0.823	0.894	0.856	0.853	0.547	0.318	0.252	0.207	0.207	0.496	0.342	0.278	0.286	0.817	0.309
NCI-H2170	0.564	0.638	0.71	0.6	0.587		0.463	0.238	0.148	0.302	0.232	0.151	0.113	0.495	0.165
NCI-H2228	0.937	0.967	1.46	1.01	0.0928	0.122	0.0907	0.0947	0.0857	0.187	0.325	0.116	0.0619	0.839	0.139
NCI-H2347	0.821	0.803	0.725	0.862	0.4	0.262	0.216	0.228	0.263	0.836	0.487	0.333	0.357	0.641	0.217
NCI-H2405	0.934	0.9	0.859	1.11	0.282	0.148	0.0814	0.112	0.0639	0.284	0.103	0.0688	0.064	0.783	0.135
NCI-H3122	0.913	0.999	0.992	1.05	0.0697		0.0639	0.0502	0.0521	0.668	0.566	0.441	0.118	1.01	0.306
PC-3 [JPC-3]	0.971	0.758	0.762	0.752	0.628	0.474	0.319	0.323	0.272	0.655	0.446	0.271	0.242	0.786	
PC-14	0.933	1.1	1.07	1.14	0.11	0.101	0.103	0.132	0.118	0.237	0.0413	0.0584	0.0397		0.12
RERF-LC-KJ	1.23	0.983	0.749	1.11	0.97	0.671	0.266	0.222	0.237	0.565	0.284	0.151	0.141	0.797	0.308
SK-LU-1	0.96	0.875	0.84	1.54	0.156	0.117		0.117	0.108	0.412	0.145	0.137	0.124	0.694	0.187
SK-MES-1	1.43	1.3	1.27	1.45		0.204	0.121	0.149	0.124	0.328	0.173	0.182	0.19	1.31	0.265
SW 1573		1.02	1.09	1.2	0.096	0.0703	0.091	0.0676	0.0574	0.275	0.123	0.0832	0.0842		0.18
